Data reported in patent US4451464A, “Trifluoromethyl substituted tricyclic quinazolinones useful as tranquilizers” (Sandoz, Inc., priority 1982, dated 1984).
pIC50: −log10 of the molar value.

Target: calf brain benzodiazepine receptors (calf brain cortex)
Assay: Flunitrazepam Receptor Binding Assay, FBA TEST No. 2 (inhibition of specific 3H-flunitrazepam binding)
Settings: 1.5 nM [3H]-Flunitrazepam, 15 min at 0° C., read-out: IC50 (concentration which inhibits specific binding of 3H-Flunitrazepam by 50%)
Description: Substantially similar results are obtainable in a Flunitrazepam Receptor Binding Assay as described by Chang et al., Eur. J. Pharmacol., 48, 213 (1978): when carried out with the non-substantive modifications evident from the following description (hereinafter FBA TEST No. 2): Fresh calf brain cortex is homogenized in a 19 fold volume of Tris-HCl buffer pH 7.4, using a Brinkman Polytron PT 20 and centrifuged at 50'000 g for […]. The pellets are frozen at -20° C. and resuspended in a 400 fold volume of Tris-buffer pH 7.4 before use for the binding assay. The assay mixtures consist of 1.8 ml of homogenate (corresponding to 4.5 mg of original tissue), 0.1 ml [^3 H]-Flunitrazepam (final concentration 1.5 nM), and 0.1 ml of buffer for determination of total binding or 0.1 ml of unlabelled Flunitrazepam (final concentration 1 μM) for determination of nonspecific binding, respectively. To assess the potency of various drugs in inhibiting specific binding, drugs are added (instead of buffer) to give 5 to 9 different concentrations between 1 nM and 10 μM, each in duplicate. After incubation for 15 min at 0° C., the assay mixtures are rapidly filtered through Whatman GF/B filters and washed twice with 5 ml of ice cold Tris-buffer. The filters are counted in Rialuma on a LKB Rach-Beta Liquid Scintillation Counter. […]

## CCCCN1CCn2c1nc1ccc(C(F)(F)F)cc1c2=O [Example 2, 1-n-butyl-7-trifluoromethyl-2,3-dihydro-imidazo[2,1-b]quinazolin-5(1H)-one]
  pIC50: 7.82
